The values below come from US12630719B2, “Fluorescent acridinium salts, synthesis thereof and use for detection of cardiolipin” (LATVIAN INSTITUTE OF ORGANIC SYNTHESIS, priority 2019, dated 2026).

Data set [1] is described as follows: Photo-physical properties in aqueous HEPES buffer solution. Format: physicochemical. To be noted: aqueous HEPES buffer 20 mM, pH 7.4. The procedure:
Photo-physical properties of I-1-I-5 was measured in aqueous HEPES [4-(2-hydroxyethyl)piperazine-1-ethanesulfonic acid] buffer solution (20 mM, pH 7.4); NAO bromide was used as reference compound. Similar to NAO, derivatives I-1-I-5 have absorption maxima at 494-498 nm, and emission maxima at 528-529 nm (Table 1). […] Moreover, the trimethylsilylpropyl substituent in position 10 improved PLQY up to 60.7% (I-5). […] The introduction of longer alkyl chains such as nonyl and dodecyl led to PLQY decrease.

A short description of data set [2]: Fluorescence intensity on interaction with CL/DOPC liposomes. The format is binding. The conditions noted are these: for fluorescence intensity after interaction with CL/DOPC liposomes: CL/DOPC liposomes (3:1), end value of the drop; for fluorescence intensity before interaction with CL/DOPC liposomes: start value of the drop. The procedure: (§1) Liposomes preparation. Vesicles were prepared by classic thin film method. […] Obtained large multilamellar liposomes were sonicated in a bath-type sonicator at room temperature for 30 min following by extrusion through a 100 nm polycarbonate filter for 21 times. The quality of the resulting small unilamellar vesicles was monitored by dynamic light scattering (DLS) technique. These stock solutions were diluted 5-fold to acquire 2nd stock solutions that were used in the fluorometric experiments.

A short description of data set [3]: Fluorescence intensity in the presence of DOPC liposomes without cardiolipin (selectivity). The format is binding. The procedure: (§2) Besides, NAO fluorescence intensity loss during interaction of DOPC was detected at 5.6% level.
as §1

The nature of data set [4]: Stability of fluorescence during experiments. The format is physicochemical. To be noted: in 30 minutes.
Source text: as §2

Data set [5] can be described thus: Titration with cardiolipin, linear regression curve. The format is binding. On the procedure:
as §1

For data set [6] the following is noted: decrease of green fluorescence in the presence of CL; cited from earlier work.

With `CCCCCCCCCCCC[n+]1c2cc(N3CCC3)ccc2cc2ccc(N3CCC3)cc21.[I-]` [Compound I-4, 3,6-di(azetidin-1-yl)-10-dodecylacridin-10-ium iodide], in data set [1], the “Φ (PLQY, photoluminescence quantum yield)” value came out at 16.1%; the λabs was 494 nm; the λem was found to be 528 nm.

As to `C[Si](C)(C)CCC[n+]1c2cc(N3CCC3)ccc2cc2ccc(N3CCC3)cc21.[I-]` [Compound I-5, 3,6-di(azetidin-1-yl)-10-(3-(trimethylsilyl)propyl)acridin-10-ium iodide], in data set [1], the “Φ (PLQY, photoluminescence quantum yield)” value worked out at 60.7%; the λabs was determined as 497 nm; the λem was 529 nm. In addition, in data set [2], the “fluorescence intensity after interaction with CL/DOPC liposomes” value is reported as 6600 a.u and the “fluorescence intensity before interaction with CL/DOPC liposomes” value is 65800 a.u. For the same compound, in data set [3], the “fluorescence intensity drop in the presence of DOPC liposomes” value worked out at 7.7%. Further, the “fluorescence intensity drop during experiments” value in data set [4] was “remaining the same”. Further, the “linear slope of the titration curve” value in data set [5] is recorded as −6259±250.

Regarding `CCCCCCCCC[n+]1c2cc(N(C)C)ccc2cc2ccc(N(C)C)cc21` [NAO, 10-N-nonyl acridine orange, reference compound], in data set [1], the “Φ (PLQY, photoluminescence quantum yield)” value is given as 15.5%; the λabs was 498 nm; the λem turned out to be 528 nm. In addition, in data set [2], the “fluorescence intensity after interaction with CL/DOPC liposomes” value is 1260 a.u and the “fluorescence intensity before interaction with CL/DOPC liposomes” value amounted to 13300 a.u. In addition, in data set [3], the “fluorescence intensity drop in the presence of DOPC liposomes” value stood at 5.6%. Moreover, the “fluorescence intensity drop during experiments” value in data set [4] came to 15.5%. Moreover, the “linear slope of the titration curve” value in data set [5] is recorded as −1222±49. Besides, the “CL content that can be quantitatively analyzed” value in data set [6] is 0.2 to 10 µM.

Consider `C[n+]1c2cc(N3CCC3)ccc2cc2ccc(N3CCC3)cc21.[I-]` [Compound I-1, 3,6-di(azetidin-1-yl)-10-methylacridin-10-ium iodide], for which, in data set [1], the “Φ (PLQY, photoluminescence quantum yield)” value worked out at 59.9%; the λabs was determined as 497 nm; the λem is 529 nm.

For the compound `CCCCCCCCC[n+]1c2cc(N3CCC3)ccc2cc2ccc(N3CCC3)cc21.[I-]` [Compound I-3, 3,6-di(azetidin-1-yl)-10-nonylacridin-10-ium iodide], in data set [1], the “Φ (PLQY, photoluminescence quantum yield)” value was found to be 47.9%; the λabs worked out at 498 nm; the λem amounted to 529 nm.

As for `[2H]C([2H])([2H])[n+]1c2cc(N3CCC3)ccc2cc2ccc(N3CCC3)cc21.[I-]` [Compound I-2, 3,6-di(azetidin-1-yl)-10-(methyl-d3)acridin-10-ium iodide], in data set [1], the “Φ (PLQY, photoluminescence quantum yield)” value is reported as 61.5%; the λabs turned out to be 497 nm; the λem is 529 nm.
